Assay results reported in ChEMBL document CHEMBL1156972, “Discovery of 2-ureidophenyltriazines bearing bridged morpholines as potent and selective ATP-competitive mTOR inhibitors” (Bioorg Med Chem Lett, 2010).
The source made the active and inactive calls. No cut-off for these calls is given here.

Experiments:
[1] = Selectivity ratio of IC50 for PI3K to IC50 for rat brain mTOR
[2] = target: Serine/threonine-protein kinase mTOR (Rattus norvegicus, UniProt P42346); experiment: Inhibition of rat brain mTOR assessed as p70S6K-GST protein phosphorylation after 30 mins by ELISA
[3] = Inhibition of PI3K assessed as PIP3 level after 20 mins by HTRF assay
LNCaP = experiment: Antiproliferative activity against human LNCAP cells after 3 days by MTS assay; assay type: functional, cell-based; settings: 72 h
U-87MG ATCC [4] = experiment: Antitumor activity against human U87MG cells xenografted in nude mouse assessed as reduction in tumor volume at 12.5 to 25 mg/kg, po QD for 5 days measured after 9 days; assay type: functional, organism-based
Mus musculus [5] = experiment: Inhibition of mTOR in human MDA361 cells xenografted in nude mouse assessed as suppression of TORC2 level at 25 mg/kg, iv after 8 hrs by immunoblotting; assay type: functional, organism-based; set-up: dose 25 mg/kg
Mus musculus [6] = experiment: Inhibition of mTOR in human MDA361 cells xenografted in nude mouse assessed as suppression of TORC1 level at 25 mg/kg, iv after 8 hrs by immunoblotting; assay type: functional, organism-based; set-up: dose 25 mg/kg
MDA361 = experiment: Inhibition of PI3K in human MDA361 cells assessed as suppression of P-AKT T308 level at 0.0125 to 10 uM by immunoblotting; assay type: cell-based
Mus musculus [7] = experiment: Inhibition of mTOR in human MDA361 cells xenografted in nude mouse assessed as suppression of TORC1 level at 10 mg/kg, iv after 8 hrs by immunoblotting; assay type: functional, organism-based; set-up: dose 10 mg/kg
[8] = Antitumor activity against human U87MG cells xenografted in nude mouse assessed as reduction in tumor volume at 5 mg/kg, iv QD for 5 days measured after 9 days relative to control; assay type: functional, U-87MG ATCC; set-up: scale not given: the % may be the effect or the level left
Mus musculus [9] = experiment: Inhibition of PI3K signalling in human MDA361 cells xenografted in nude mouse assessed as suppression of PI3K/PDK1 level at 25 mg/kg, iv after 8 hrs by immunoblotting; assay type: functional, organism-based; set-up: dose 25 mg/kg
Mus musculus [10] = experiment: Inhibition of mTOR in human MDA361 cells xenografted in nude mouse assessed as suppression of TORC2 level at 10 mg/kg, iv after 8 hrs by immunoblotting; assay type: functional, organism-based; set-up: dose 10 mg/kg
Mus musculus [11] = experiment: Inhibition of PI3K signalling in human MDA361 cells xenografted in nude mouse assessed as suppression of PI3K/PDK1 level at 10 mg/kg, iv after 8 hrs by immunoblotting; assay type: functional, organism-based; set-up: dose 10 mg/kg
U-87MG ATCC [12] = experiment: Antitumor activity against human U87MG cells xenografted in nude mouse assessed as reduction in tumor volume at 5 to 15 mg/kg, po QD for 5 days measured up to 10 days; assay type: functional, organism-based
[13] = Antitumor activity against human U87MG cells xenografted in nude mouse assessed as reduction in tumor volume at 10 mg/kg, po QD for 5 days measured after 8 days relative to control; assay type: functional, U-87MG ATCC; set-up: scale not given: the % may be the effect or the level left

Ratio IC50 [1] | IC50 [2] | IC50 [3] | IC50 (LNCaP) | SMILES | further results
802 | 2.6 nM | 2120 nM | 90 nM | O=C(Nc1ccc(-c2nc(N3CC4CCC(C3)O4)nc(N3CC4CCC(C3)O4)n2)cc1)NC1CC1 | –
0.41 | 60 nM | 24 nM | 180 nM | FC(F)c1nc2ccccc2n1-c1nc(N2CCOCC2)nc(N2CC3CCC(C2)O3)n1 | –
– | – | – | – | CN1CCN(c2ccc(NC(=O)Nc3ccc(-c4nc(N5C6CCC5COC6)nc(N5C6CCC5COC6)n4)cc3)cc2)CC1 | Activity (U-87MG ATCC [4]): Active; inhibition (Mus musculus [5]): Active; inhibition (Mus musculus [6]): Active; inhibition (MDA361): Active; inhibition (Mus musculus [7]): Active; Activity [8]: 31%; inhibition (Mus musculus [9]): Active; inhibition (Mus musculus [10]): Active; inhibition (Mus musculus [11]): inactive
2.8 | 44 nM | 124 nM | 680 nM | FC(F)c1nc2ccccc2n1-c1nc(N2CC3CCC(C2)O3)nc(N2CC3CCC(C2)O3)n1 | –
– | 45 nM | – | 210 nM | FC(F)c1nc2ccccc2n1-c1nc(N2CCOCC2)nc(N2CCOCC2)n1 [ZSTK-474] | –
961 | 2.8 nM | 2690 nM | 180 nM | CCNC(=O)Nc1ccc(-c2nc(N3CC4CCC(C3)O4)nc(N3CC4CCC(C3)O4)n2)cc1 | –
14 | 130 nM | 1820 nM | 550 nM | CN1CCN(c2ccc(NC(=O)Nc3ccc(-c4nc(N5C[C@H]6C[C@@H]5CO6)nc(N5C[C@H]6C[C@@H]5CO6)n4)cc3)cc2)CC1 | –
51 | 1.7 nM | 87 nM | 2.3 nM | CN1CCN(c2ccc(NC(=O)Nc3ccc(-c4nc(N5CC6CCC(C5)O6)nc(N5CC6CCC(C5)O6)n4)cc3)cc2)CC1 | Activity (U-87MG ATCC [12]): Active; Activity [13]: 44%
282 | 0.5 nM | 142 nM | 45 nM | O=C(Nc1ccncc1)Nc1ccc(-c2nc(N3CC4CCC(C3)O4)nc(N3CC4CCC(C3)O4)n2)cc1 | –
98 | 35 nM | 3440 nM | – | CN1CCN(c2ccc(NC(=O)Nc3ccc(-c4nc(N5C[C@@H]6C[C@H]5CO6)nc(N5C[C@@H]6C[C@H]5CO6)n4)cc3)cc2)CC1 | –
272 | 2.5 nM | 680 nM | 190 nM | CNC(=O)Nc1ccc(-c2nc(N3CC4CCC(C3)O4)nc(N3CC4CCC(C3)O4)n2)cc1 | –

SMILES | Ratio IC50 [1] | IC50 [2] | IC50 [3] | IC50 (LNCaP) | further results
CN1CCN(c2ccc(NC(=O)Nc3ccc(-c4nc(N5CC6CCC(C5)O6)nc(N5C6CCC5COC6)n4)cc3)cc2)CC1 | 75 | 2 nM | 150 nM | < 0.8 nM | –
